The supplement of paper PMC10878532, “Sperm Toolbox—A selection of small molecules to study human spermatozoa” (PLOS ONE, 2024)
Counter-ions that a name gives are not always drawn.

Experiments:
human spermatozoa [1] = assay: hyperactivated motile sperm, percent change vs DMSO (capacitating); higher = more of the measured sperm population than DMSO, for viability, fewer PI-positive (dead) cells than DMSO; settings: incubation time: 30min incubation
human spermatozoa [2] = assay: change in acrosome-reacted (PNA+) sperm vs DMSO, no agonist (capacitating); higher = more of the measured sperm population than DMSO, for viability, fewer PI-positive (dead) cells than DMSO; settings: incubation time: 3h
human spermatozoa [3] = assay: progressively motile sperm, percent change vs DMSO (capacitating); higher = more of the measured sperm population than DMSO, for viability, fewer PI-positive (dead) cells than DMSO; settings: incubation time: 30min incubation
HeLa [4] = assay: Cell Painting percent induction (share of features beyond 2 z-scores vs DMSO); higher = more features changed / larger toxic effect; extreme values may be limits of the assay; settings: incubation time: 24h incubation
HepG2 = HepG2 toxicity (resazurin), effect normalised to DMSO (DMSO = 0); higher = more features changed / larger toxic effect; settings: incubation time: 70h incubation
human spermatozoa [5] = assay: progressively motile sperm, percent change vs DMSO (non-capacitating); higher = more of the measured sperm population than DMSO, for viability, fewer PI-positive (dead) cells than DMSO; extreme values may be limits of the assay
human spermatozoa [6] = assay: acrosome-reacted (PNA+) sperm after agonist cocktail, percent change vs DMSO (capacitating); higher = more of the measured sperm population than DMSO, for viability, fewer PI-positive (dead) cells than DMSO; settings: incubation time: 3h, capacitating + agonist cocktail 1h
human spermatozoa [7] = assay: viability fold change, 1 - (PI-positive fraction / DMSO median); higher = more of the measured sperm population than DMSO, for viability, fewer PI-positive (dead) cells than DMSO; settings: incubation time: 3h, non-capacitating
HeLa [8] = assay: HeLa toxicity: nuclei-count effect normalised to DMSO (DMSO = 0); higher = more features changed / larger toxic effect; settings: incubation time: 24h incubation
human spermatozoa [9] = assay: total motile sperm, percent change vs DMSO (non-capacitating); higher = more of the measured sperm population than DMSO, for viability, fewer PI-positive (dead) cells than DMSO
[10] = incubation time: 10min incubation, 9.99 µM
[11] = incubation time: 10min incubation, 29.9 µM
[12] = incubation time: 3h incubation, 9.99 µM
[13] = incubation time: 3h incubation, 29.9 µM
[14] = incubation time: 6h incubation, 9.99 µM
[15] = incubation time: 6h incubation, 29.9 µM
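Wherever progressively motile sperm, percent change vs DMSO (non-capacitating) is given: pooled live human sperm from at least 3 donors, tracked by automated microscopy in 0.5 s time-lapse movies, compounds at 10 and 30 µM, versus median of 16 DMSO wells per plate.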
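Wherever total motile sperm, percent change vs DMSO (non-capacitating) is given: sperm pooled from at least 3 donors, tracked in 0.5 s time-lapse movies by automated microscopy after 10 min, 3 h or 6 h with compound at 10 or 30 µM.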

Compound | hyperactivated motile sperm (human spermatozoa [1]; 9.99 µM) [%] | hyperactivated motile sperm (human spermatozoa [1]; 29.9 µM) [%] | change in acrosome-reacted (human spermatozoa [2]; 9.99 µM) [%] | change in acrosome-reacted (human spermatozoa [2]; 29.9 µM) [%] | progressively motile sperm (human spermatozoa [3]; 9.99 µM) [%] | progressively motile sperm (human spermatozoa [3]; 29.9 µM) [%] | Cell Painting percent induction (HeLa [4]; 9.99 µM) [%] | Cell Painting percent induction (HeLa [4]; 29.9 µM) [%] | HepG2 toxicity (HepG2; 10 µM) [%] | HepG2 toxicity (HepG2; 30 µM) [%] | progressively motile sperm (human spermatozoa [5]; [10]) [%] | progressively motile sperm (human spermatozoa [5]; [11]) [%] | progressively motile sperm (human spermatozoa [5]; [12]) [%] | progressively motile sperm (human spermatozoa [5]; [13]) [%] | progressively motile sperm (human spermatozoa [5]; [14]) [%] | progressively motile sperm (human spermatozoa [5]; [15]) [%] | acrosome-reacted (human spermatozoa [6]; 9.99 µM) [%] | acrosome-reacted (human spermatozoa [6]; 29.9 µM) [%] | viability fold change (human spermatozoa [7]; 9.99 µM) | viability fold change (human spermatozoa [7]; 29.9 µM) | HeLa toxicity: nuclei-count effect normalised (HeLa [8]; 9.99 µM) [%] | HeLa toxicity: nuclei-count effect normalised (HeLa [8]; 29.9 µM) [%] | total motile sperm (human spermatozoa [9]; [10]) [%] | total motile sperm (human spermatozoa [9]; [11]) [%] | total motile sperm (human spermatozoa [9]; [12]) [%] | total motile sperm (human spermatozoa [9]; [13]) [%] | total motile sperm (human spermatozoa [9]; [14]) [%] | total motile sperm (human spermatozoa [9]; [15]) [%]
Nc1ccc(-c2ccc3ncc4ccc(=O)n(-c5cccc(C(F)(F)F)c5)c4c3c2)cn1 [Torin 2] | 180 | 16.9 | 1.71 | 1.79 | 7.66 | 15.1 | 4.68 | 29.7 | 97.2 | 96 | 38.8 | 34.7 | 76.3 | 50.7 | 89.8 | 47.4 | 116 | 129 | -0.979 | -0.723 | 83.4 | 96.5 | -0.268 | 1.3 | -8.49 | -9.72 | -12.1 | -16.1
COc1cc2c(cc1OC)-c1c/c(=N\c3c(C)cc(C)cc3C)n(C)c(=O)n1CC2 [Trequinsin hydrochloride] | 192 | 73.7 | 1.55 | 1.58 | 8.14 | 16.2 | 0.036 | 0.36 | 11.1 | 40.3 | 33.3 | 28.3 | 76.1 | 48.1 | 76.6 | 44 | 102 | 120 | -1.81 | -1.99 | -1.54 | 27.5 | -3.16 | -4.39 | -11.3 | -17.8 | -12.7 | -22.8
O.O.O.OO.OO.[K+].[OH-].[V].c1cnc2c(c1)ccc1cccnc12 [bpV(phen)] | 17.7 | 12.9 | 1.06 | 1.79 | 3.97 | 14.8 | 0.793 | 2.7 | 28.8 |  | 6.92 | 8.6 | -1.94 | -6.75 | 3.08 | -21.9 | 16.4 | 21 | -0.0835 | -0.163 | 34.3 | 34.7 | 1.25 | 3.48 | -3.57 | -2.96 | -4.6 | -7.01
N=C(N)Nc1nc(-c2ccc(Cl)cc2)cs1 [n-[4-(4-Chlorophenyl)-1,3-thiazol-2-yl]guanidine] | 17.5 | 17.3 | 1.42 | 1.64 | 10.1 | 17 | 0 | 0.108 | 3.6 | -2.59 | 9.51 | 8.48 | 24 | 14.5 | 19.1 | 31 | 15.2 | 21.5 | -0.638 | -0.59 | 9.82 | 14.3 | 0.678 | 2.58 | 1.9 | -3.38 | -0.743 | 0.262
